# Test results reported in patent US20230057891A1, “EGFR INHIBITORS” (Hoffmann-La Roche Inc., priority 2019, published 2023).
# Molecular target: T1, EGFR TMLRCS (T790M/L858R/C797S) (Homo sapiens, UniProt P00533, C797S/L858R/T790M)
# T1 construct: host or cells: BaF3-TMLRCS cell line
# Assay: HTRF Phospho EGFR TMLRCS assay (cellular), BaF3-TMLRCS cells
# Assay type: cell-based
# Details: BaF3-TMLRCS cell line, 4 hours incubation
# Method: HTRF Phospho EGFR TMLRCS Assay (Cellular)
# BaF3-TMLRCS cell line were obtained from Crownbio (San Diego, Calif., USA). Cells were maintained at 37° C., 5% CO2 in RPMI ATCC (Gibco 31870)+2 mM Glutamine+0.5 μg/ml Puromycin supplemented with 10% fetal bovine serum (FBS) (Gibco).
# Cells are transferred as above to Greiner Bio-One, Nr. 784-08 micro-titerplate at 20000 cells/well in 12.5 μl of growth medium/well after the plates had been pre-filled with 12.5 nl of DMSO solutions of the to be tested compound (in dose response) or DMSO only. After spinning the plates at 300×g for 30 seconds the cells were incubated for 4 hours at 37 C, 5% CO2, 95% humidity. The cells were lysed by adding to the compound mix 4 µl/well of the supplemented lysis buffer (Cis-bio, Phospho-EGFR HTRF kit, 64EG1PEH), followed by incubation for 30 min at room temperature with shaking (400 rpm). The plates were then frozen and stored overnight at −80 C. On the next day and after thawing the plates, 4 μl of a mixture of anti-Phospho-EGFR Cryptate and of anti-Phospho-EGFR-d2 antibody solutions prepared in the supplied detection buffer was added to each well. The lidded plates were then incubated for 4 h at room temperature before reading the fluorescence emission at 616 and 665 nm using an Envision reader (Perkin Elmer). Data was analyzed in similar fashion as above using the normalized ratio of the 665 to 616 signals multiplied by 10000.
# T1 sequence (P00533 25-1210 T790M/C797S/L858R): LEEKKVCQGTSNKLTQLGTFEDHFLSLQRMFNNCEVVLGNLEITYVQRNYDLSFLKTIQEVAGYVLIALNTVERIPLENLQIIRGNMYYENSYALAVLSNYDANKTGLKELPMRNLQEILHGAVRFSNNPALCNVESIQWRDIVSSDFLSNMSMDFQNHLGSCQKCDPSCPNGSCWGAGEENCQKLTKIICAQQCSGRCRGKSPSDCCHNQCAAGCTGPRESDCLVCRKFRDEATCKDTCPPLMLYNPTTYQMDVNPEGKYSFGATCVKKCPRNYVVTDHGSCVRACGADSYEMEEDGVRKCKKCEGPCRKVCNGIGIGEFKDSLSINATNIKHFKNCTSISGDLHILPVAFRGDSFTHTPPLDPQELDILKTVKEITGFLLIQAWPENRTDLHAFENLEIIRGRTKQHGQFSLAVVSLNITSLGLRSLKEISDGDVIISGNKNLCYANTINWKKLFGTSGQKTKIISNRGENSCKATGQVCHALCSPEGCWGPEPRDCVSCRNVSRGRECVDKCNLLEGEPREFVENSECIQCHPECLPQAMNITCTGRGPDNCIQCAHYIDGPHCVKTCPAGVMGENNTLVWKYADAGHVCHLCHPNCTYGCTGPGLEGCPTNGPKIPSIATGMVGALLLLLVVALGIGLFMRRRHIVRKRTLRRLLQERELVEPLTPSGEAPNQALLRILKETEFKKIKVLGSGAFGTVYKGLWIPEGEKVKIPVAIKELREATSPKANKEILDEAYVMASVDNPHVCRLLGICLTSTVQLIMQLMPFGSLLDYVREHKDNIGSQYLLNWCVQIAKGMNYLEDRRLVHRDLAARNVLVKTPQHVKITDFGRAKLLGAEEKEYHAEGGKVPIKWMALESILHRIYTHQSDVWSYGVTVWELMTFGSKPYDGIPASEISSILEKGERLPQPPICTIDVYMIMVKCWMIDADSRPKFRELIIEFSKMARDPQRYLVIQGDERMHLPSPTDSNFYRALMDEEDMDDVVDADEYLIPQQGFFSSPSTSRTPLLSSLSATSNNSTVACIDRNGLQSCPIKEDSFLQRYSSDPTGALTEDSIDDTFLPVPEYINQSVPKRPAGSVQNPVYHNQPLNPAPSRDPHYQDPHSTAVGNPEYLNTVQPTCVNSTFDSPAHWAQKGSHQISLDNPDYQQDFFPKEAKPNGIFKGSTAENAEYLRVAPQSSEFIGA
row,IC50,Compound
1,13 nM,"O=C(Nc1nccs1)C(c1ncn2c1CCC2)N1Cc2c(F)cc(-c3ccc(C45CC(CN6CCCC6)(C4)C5)cc3)cc2C1=O (racemic) [Example 5, (2RS)-2-(6,7-Dihydro-5H-pyrrolo[1,2-c]imidazol-1-yl)-2-[4-fluoro-1-oxo-6-[4-[3-(pyrrolidin-1-ylmethyl)-1-bicyclo[1.1.1]pentanyl]phenyl]isoindolin-2-yl]-N-thiazol-2-yl-acetamide]"
2,10 nM,"CN(C)CC12CC(c3ccc(-c4cc(F)c5c(c4)C(=O)N(C(C(=O)Nc4nccs4)c4ncn6c4CCC6)C5)cc3)(C1)C2 (racemic) [Example 3, (2RS)-2-(6,7-Dihydro-5H-pyrrolo[1,2-c]imidazol-1-yl)-2-[6-[4-[3-[(dimethylamino)methyl]-1-bicyclo[1.1.1]pentanyl]phenyl]-4-fluoro-1-oxo-isoindolin-2-yl]-N-thiazol-2-yl-acetamide]"

# Further lines, the compound ahead of its results:
row,Compound,IC50
1,"O=C(Nc1nccs1)C(c1ncn2c1CCC2)N1Cc2c(F)cc(-c3ccc(C45CC(CN6CCC(CO)CC6)(C4)C5)cc3)cc2C1=O (racemic) [Example 2, (2RS)-2-(6,7-Dihydro-5H-pyrrolo[1,2-c]imidazol-1-yl)-2-[4-fluoro-6-[4-[3-[[4-(hydroxymethyl)-1-piperidyl]methyl]-1-bicyclo[1.1.1]pentanyl]phenyl]-1-oxo-isoindolin-2-yl]-N-thiazol-2-yl-acetamide]",4 nM
2,"O=C(Nc1nccs1)C(c1ncn2c1CCC2)N1Cc2c(F)cc(-c3ccc(C45CC(CN6CCC(O)CC6)(C4)C5)cc3)cc2C1=O (racemic) [Example 4, (2RS)-2-(6,7-Dihydro-5H-pyrrolo[1,2-c]imidazol-1-yl)-2-[4-fluoro-6-[4-[3-[(4-hydroxy-1-piperidyl)methyl]-1-bicyclo[1.1.1]pentanyl]phenyl]-1-oxo-isoindolin-2-yl]-N-thiazol-2-yl-acetamide]",13 nM
3,"O=C(Nc1nccs1)C(c1ncn2c1CCC2)N1Cc2c(F)cc(-c3ccc(C45CC(CN6CCC(CO)CC6)(C4)C5)cc3)c(F)c2C1=O (racemic) [Example 7, (2RS)-2-[4,7-Difluoro-6-[4-[3-[[4-(hydroxymethyl)-1-piperidyl]methyl]-1-bicyclo[1.1.1]pentanyl]phenyl]-1-oxo-isoindolin-2-yl]-2-(6,7-dihydro-5H-pyrrolo[1,2-c]imidazol-1-yl)-N-thiazol-2-yl-acetamide]",4 nM
4,"O=C(Nc1nccs1)C(c1ncn2c1CCC2)N1Cc2c(F)cc(-c3ccc(C45CC(CN6CCCC(O)CC6)(C4)C5)cc3)cc2C1=O (racemic) [Example 6, (2RS)-2-(6,7-Dihydro-5H-pyrrolo[1,2-c]imidazol-1-yl)-2-[4-fluoro-6-[4-[3-[[(4RS)-4-hydroxyazepan-1-yl]methyl]-1-bicyclo[1.1.1]pentanyl]phenyl]-1-oxo-isoindolin-2-yl]-N-thiazol-2-yl-acetamide]",8 nM
5,"O=C(Nc1nccs1)C(c1ncn2c1CCC2)N1Cc2c(Cl)cc(-c3ccc(C45CC(CN6CCC(CO)CC6)(C4)C5)cc3)cc2C1=O (racemic) [Example 1, (2RS)-2-(6,7-Dihydro-5H-pyrrolo[1,2-c]imidazol-1-yl)-2-[4-chloro-6-[4-[3-[[4-(hydroxymethyl)-1-piperidyl]methyl]-1-bicyclo[1.1.1]pentanyl]phenyl]-1-oxo-isoindolin-2-yl]-N-thiazol-2-yl-acetamide]",9 nM
